Measurements reported in US9783547B2, “Water soluble 4-azapodophyllotoxin analogs” (CENTRE NATIONAL DE LA RECHERCHE SCIENTIFIQUE (CNRS), priority 2014, dated 2017).
Structures can show the parent of a compound that is named as a salt.

Assays:
[1] = tested on: EAhy 926 endothelial cell line; assay: Endothelial cell morphology evaluation (rounding up); assay type: cell-based; settings: Homo sapiens, EA.hy 926; 2 h incubation; rounding up of more than 15% of cells; read-out: Cmarr EA.hy 926: lowest concentration at which cell rounding up was observed
Text: To assess the effects of the compounds on the morphology of endothelial cells, the EAhy 926 endothelial cell line was used, which is derived from the fusion of human umbilical vein endothelial cells (HUVEC) with the permanent human cell line A549 (Edgell et al, Proc. Natl. Acad. Sci. U.S.A., 1983, vol 80, issue 12, 3734-3737). The EAhy 926 cell line is considered as a good representative of native HUVEC because it expresses most of the biochemical markers of parental HUVEC (Bouis et al., Angiogenesis., 2001, 4, 91-102). EAhy 926 cells were grown in DMEM containing 2 mM L-glutamine, 10% foetal bovine serum, 100 U/mL penicillin and 100 μg/mL streptomycin in a humidified atmosphere (37° C., 5% CO2). Exponentially growing EAhy 926 cells were plated onto 96 well plates at 5000 cells/100 μL/well. Twenty-four hours after plating, the medium was aspirated, and 100 μL of medium containing the test compound was added to the well containing the cells (in triplicate) and incubated for 2 h (37° C., 5% CO2). The highest concentration used was 100 μM followed by serial two-fold dilutions down to low nanomolar concentrations, if needed for the most morphologically active compounds. After the 2 h-incubation period, digital photographs were taken of representative centre areas of each well at a magnification of 100× and 200×. The results are presented as the minimum concentration that could elicit the rounding up of more than 15% of cells in a field in order to exclude normal mitotic cells which is less that 15% in control 1% DMSO treated cells. Triplicate concentrations on the same plate were routinely carried out. CA4 was included in the experiments as a positive internal standard.
Compounds of the invention were first tested on EAhy 926 endothelial cells, which are transformed HUVEC (human umbilical vein endothelial cells). These cells undergo a rounding up upon a short 2 hour exposure to vascular disrupting agents, e.g. combretastatin A4.

tubulin = assay: Tubulin polymerization inhibition assay (DAPI fluorescence); assay type: biochemical; settings: for Inhibition of tubulin polymerization at 30 μM: IC50 ND; for IC50: tubulin 1 mg/ml, DAPI, read-out: IPT (inhibition of tubulin polymerization) IC50
Text: Fluorescence was then read at the excitation wavelength of 360 nm and emission of 450 nm.

B16 melanoma cells = assay: Cytotoxicity assay for murine cancer cells (MTT); assay type: cell-based; settings: Mus musculus, 48 h exposure
Protocol: Murine B16 melanoma cells, Lewis lung carcinoma cells and colon 26 carcinoma cells were grown in DMEM medium containing 2 mM L-glutamine, 10% foetal bovine serum, 100 U/mL penicillin and 100 μg/mL streptomycin (37° C., 5% CO2). […] Exponentially growing cells were plated onto 96-well plates at 5000 cells per well in 100 μL of culture medium. 24 h after plating, 100 μl of medium containing the tested compound at final concentrations ranging from 0.01 to 100 μM were added to the wells (in triplicate) containing the cells, and incubated for 48 h at 37° C. and 5% CO2. After the 48 h exposure period to the test compounds, cell viability was assayed using the MTT (methylthiazoletetrazolium) test (Scudiero et al., Cancer Res. 1988, 48, 4827-4833) and absorbance was read at 562 nm in a microplate reader (BioKinetics Reader, EL340). Appropriate controls with DMEM only and MTT were run to subtract background absorbance.

Compound	minimal effective concentration [1]	Inhibition of tubulin polymerization at 30 μM (tubulin)	IC50 (B16 melanoma cells)	melting point	IC50 (tubulin)
COc1cc(Nc2c3c(nc4cc5c(cc24)OCO5)CCCC3O)cc(OC)c1OC (stereo not drawn) [SGR 308]	25 µM	ND (31% à 30 μM)	29.5 µM	–	–
COc1cccc(Nc2c3c(nc4cc5c(cc24)OCO5)CCCC3=O)c1 [SGR 356•HCl, 6,7-(Methylenedioxy)-9-(3-methoxyphenylamino)-3,4-dihydroacridin-1(2H)-one, hydrochloride]	50 µM	–	> 100 µM	–	–
O=C1CCCc2c1cc1cc3c(cc1[n+]2[O-])OCO3 [SGR 305]	> 100 µM	ND (22% à 30 μM)	> 100 µM	–	–
COc1ccc(Nc2c3c(nc4cc5c(cc24)OCO5)CCC3=O)cc1OC [SGR 359•HCl, 6,7-(Methylenedioxy)-9-(3,4-dimethoxyphenylamino)-2,3-dihydro-1H-cyclopenta[b]quinolin-1-one, hydrochloride]	25 µM	–	17.4 µM	–	–
COc1cccc(Nc2c3c(nc4cc5c(cc24)OCO5)CCCC3=O)c1 (as salt: hydrochloride) [SGR 356•HCl, 6,7-(Methylenedioxy)-9-(3-methoxyphenylamino)-3,4-dihydroacridin-1(2H)-one, hydrochloride]	–	–	–	258 °C	–
COc1cc(Nc2c3c(nc4cc5c(cc24)OCO5)CCCC3=O)cc(OC)c1 (as salt: hydrochloride) [SGR 363•HCl, 6,7-(Methylenedioxy)-9-(3,5-dimethoxyphenylamino)-3,4-dihydroacridin-1(2H)-one, hydrochloride]	–	–	–	256 °C	–
O=C1CCCc2nc3cc4c(cc3c(Nc3ccc5c(c3)OCO5)c21)OCO4 [SGR 355•HCl, 6,7-(Methylenedioxy)-9-(3,4-methylenedioxyphenyl-amino)-3,4-dihydroacridin-1(2H)-one, hydrochloride]	100 µM	–	17.4 µM	–	–
COc1cc(Nc2c3c(nc4cc(C)c(C)cc24)CCCC3=O)cc(OC)c1OC (as salt: hydrochloride) [SGR 364•HCl, 6,7-(Dimethyl)-9-(3,4,5-trimethoxyphenylamino)-3,4-dihydroacridin-1(2H)-one, hydrochloride]	–	–	–	216 °C	–
COc1cc(Nc2c3c(nc4cc5c(cc24)OCCO5)CCCC3=O)cc(OC)c1OC (as salt: hydrochloride) [SGR 360•HCl, 6,7-(Ethylenedioxy)-9-(3,4,5-trimethoxyphenylamino)-3,4-dihydroacridin-1(2H)-one, hydrochloride]	–	–	–	266 °C	–
O=C1CCCc2nc3cc4c(cc3cc21)OCO4 [SGR 304]	> 100 µM	ND (33% à 30 μM)	> 100 µM	–	–
COc1cc(Nc2c3c(nc4cc5c(cc24)OCO5)CCC3=O)cc(OC)c1OC [SGR 358•HCl, 6,7-(Methylenedioxy)-9-(3,4,5-trimethoxyphenylamino)-2,3-dihydro-1H-cyclopenta[b]quinolin-1-one, hydrochloride]	0.25 µM	–	1.01 µM	–	–
COc1cc(Nc2c3c(nc4cc5c(cc24)OCO5)CCCC3=O)cc(OC)c1 [SGR 363•HCl, 6,7-(Methylenedioxy)-9-(3,5-dimethoxyphenylamino)-3,4-dihydroacridin-1(2H)-one, hydrochloride]	0.06 µM	–	1.4 µM	–	–
COc1cc(CNc2c3c(nc4cc5c(cc24)OCO5)CCCC3=O)cc(OC)c1OC.Cl [SGR 357•HCl]	25 µM	ND (18% à 30 μM)	8.9 µM	–	–
O=C1CCCc2nc3cc4c(cc3c(Nc3ccc5c(c3)OCO5)c21)OCO4 (as salt: hydrochloride) [SGR 355•HCl, 6,7-(Methylenedioxy)-9-(3,4-methylenedioxyphenyl-amino)-3,4-dihydroacridin-1(2H)-one, hydrochloride]	–	–	–	260 °C	–
COc1cc(Nc2c3c(nc4cc5c(cc24)OCO5)CCC3=O)cc(OC)c1OC (as salt: hydrochloride) [SGR 358•HCl, 6,7-(Methylenedioxy)-9-(3,4,5-trimethoxyphenylamino)-2,3-dihydro-1H-cyclopenta[b]quinolin-1-one, hydrochloride]	–	–	–	267 °C	–
COc1cc(Nc2c3c(nc4cc5c(cc24)OCO5)CCC=C3)cc(OC)c1OC [SGR 309]	3.13 µM	–	11 µM	–	18.2 µM
O=C1CCCc2nc3cc4c(cc3c(Cl)c21)OCO4 [SGR 306]	12.5 µM	ND (3% à 30 μM)	> 100 µM	–	–
COc1cc(Nc2c3c(nc4cc(C)c(C)cc24)CCCC3=O)cc(OC)c1OC [SGR 364•HCl, 6,7-(Dimethyl)-9-(3,4,5-trimethoxyphenylamino)-3,4-dihydroacridin-1(2H)-one, hydrochloride]	6.25 µM	–	12.6 µM	–	–
COc1ccc(Nc2c3c(nc4cc5c(cc24)OCO5)CCC3=O)cc1OC (as salt: hydrochloride) [SGR 359•HCl, 6,7-(Methylenedioxy)-9-(3,4-dimethoxyphenylamino)-2,3-dihydro-1H-cyclopenta[b]quinolin-1-one, hydrochloride]	–	–	–	256 °C	–
COc1cc(NC2=C3C(=O)OCC3N(C)c3cc4c(cc32)OCO4)cc(OC)c1OC (stereo not drawn) [SGR 230, reference compound]	0.12 µM	–	38.4 µM	–	1.04 µM
COc1cc(Nc2c3c(nc4cc5c(cc24)OCO5)COC3=O)cc(OC)c1OC [SGR 231, reference compound]	1.95 µM	–	0.4 µM	–	0.42 µM
COc1cc(Nc2c3c(nc4cc5c(cc24)OCCO5)CCCC3=O)cc(OC)c1OC [SGR 360•HCl, 6,7-(Ethylenedioxy)-9-(3,4,5-trimethoxyphenylamino)-3,4-dihydroacridin-1(2H)-one, hydrochloride]	0.06 µM	–	8.1 µM	–	–
COc1cc(Nc2c3c(nc4cc5c(cc24)OCCO5)CCCC3=O)cc(OC)c1 (as salt: hydrochloride) [SGR 361•HCl, 6,7-(Ethylenedioxy)-9-(3,5-dimethoxyphenylamino)-3,4-dihydroacridin-1(2H)-one, hydrochloride]	–	–	–	254 to 255 °C	–
